Results as given in US9850183B2, “Conjugates derived from non-steroidal anti-inflammatory drugs and methods of use thereof in imaging” (Reiley Pharmaceuticals, Inc., priority 2014, dated 2017).
Read-outs that look alike come from different tables or passages of the source.

What was measured:
human COX-2 = target: T1, human COX-2 (Homo sapiens, UniProt P35354); assay: COX-2 enzyme assay (EIA kit, PGF2α readout); format: biochemical
T1 construct: purchased Cayman Chemical Co., Ann Arbor, Mich., USA 701080
T1 sequence (P35354 18-604): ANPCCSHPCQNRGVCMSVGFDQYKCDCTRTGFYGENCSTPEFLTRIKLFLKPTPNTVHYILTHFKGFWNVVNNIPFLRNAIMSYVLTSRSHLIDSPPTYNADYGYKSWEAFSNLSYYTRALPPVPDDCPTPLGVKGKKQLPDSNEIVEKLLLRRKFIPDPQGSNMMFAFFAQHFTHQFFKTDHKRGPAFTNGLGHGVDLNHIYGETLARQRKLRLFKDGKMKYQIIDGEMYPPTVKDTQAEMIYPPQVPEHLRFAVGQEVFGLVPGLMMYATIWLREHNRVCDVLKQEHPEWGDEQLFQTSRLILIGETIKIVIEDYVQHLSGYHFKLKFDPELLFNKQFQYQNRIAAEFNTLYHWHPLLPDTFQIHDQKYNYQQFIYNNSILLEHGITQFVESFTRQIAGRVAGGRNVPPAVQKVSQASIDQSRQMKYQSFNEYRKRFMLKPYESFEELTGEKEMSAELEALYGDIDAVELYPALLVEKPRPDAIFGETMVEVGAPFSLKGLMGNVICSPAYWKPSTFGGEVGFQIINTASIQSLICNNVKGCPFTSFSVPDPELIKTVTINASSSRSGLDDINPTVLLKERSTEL
Method: (§1) The ability of compounds to inhibit ovine COX-1 and human COX-2 was determined using a commercially available enzyme immunoassay (EIA) kit (catalog no. 701090 (COX-1); 701080 (COX-2) Cayman Chemical Co., Ann Arbor, Mich., USA) according to the manufacturer's protocol. COX catalyzes the first step in the biosynthesis of AA to PGH2. PGF2α, produced from PGH2 by reduction with stannous chloride, was measured by EIA (ACE™ competitive EIA, Cayman Chemical, Ann Arbor, Mich., USA). Briefly, to a series of supplied reaction buffer solutions [960 μl 0.1 M Tris-HCl (pH 8.0) containing 5 mM EDTA and 2 mM phenol] with either COX-1 or COX-2 (10 μl) enzyme in the presence of heme (10 μl), 10 μl of various concentrations of test drug solutions were added. These solutions were incubated for 15 min at 37° C. and subsequently 10 μl AA solution (100 μM) was added. The COX reaction was stopped by the addition of 30 μl stannus chloride after 2 min, mixed immediately, supernatants were 2000 fold diluted. The produced PGF2α was measured by EIA. This assay is based on the competition between PGs and a PG-acetylcholinesterase conjugate (PG tracer) for a limited amount of PG antiserum. The amount of PG tracer that is able to bind to the PG antiserum is inversely proportional to the concentration of PGs in the wells since the concentration of the PG tracer is held at a constant while the concentration of PGs varies. The specific antiserum-PG complex bound to a mouse anti-rabbit IgG that had been previously attached to the well. The plate was washed to remove any unbound reagents and 200 μl Ellman's reagent (5,5′-dithiobis-(2-nitrobenzoic acid), which contains the substrate to acetylcholine esterase, was added to the well. The product of this enzymatic reaction generates a distinct yellow color that absorbs at 406 nm. The intensity of this color, determined by spectrophotometry, is proportional to the amount of PG tracer bound to the well, which is inversely proportional to the amount of PGs present in the well during the incubation. Percent inhibition was calculated by the comparison of the compounds treated to the various control incubations.
(§2) Dose-response curves were generated using XLFit (IDBS, Surrey, UK) or Prism (GraphPad Software, La Jolla, Calif., US) to calculate IC50 values for each compound tested.

COX-2 = target: T2, COX-2 (Mus musculus, UniProt Q05769); assay: Cell-based COX-2 assay (PGE2 in LPS/IFN-g stimulated RAW264.7 cells); conditions: RAW264.7 murine macrophages, 1 μg/ml LPS and 10 U/ml IFN-g for 7 h, PGE2 readout
T2 construct: endogenous in cells; host or cells: RAW264.7 murine macrophages, stimulated with LPS and IFN-g
T2 sequence (Q05769 18-604): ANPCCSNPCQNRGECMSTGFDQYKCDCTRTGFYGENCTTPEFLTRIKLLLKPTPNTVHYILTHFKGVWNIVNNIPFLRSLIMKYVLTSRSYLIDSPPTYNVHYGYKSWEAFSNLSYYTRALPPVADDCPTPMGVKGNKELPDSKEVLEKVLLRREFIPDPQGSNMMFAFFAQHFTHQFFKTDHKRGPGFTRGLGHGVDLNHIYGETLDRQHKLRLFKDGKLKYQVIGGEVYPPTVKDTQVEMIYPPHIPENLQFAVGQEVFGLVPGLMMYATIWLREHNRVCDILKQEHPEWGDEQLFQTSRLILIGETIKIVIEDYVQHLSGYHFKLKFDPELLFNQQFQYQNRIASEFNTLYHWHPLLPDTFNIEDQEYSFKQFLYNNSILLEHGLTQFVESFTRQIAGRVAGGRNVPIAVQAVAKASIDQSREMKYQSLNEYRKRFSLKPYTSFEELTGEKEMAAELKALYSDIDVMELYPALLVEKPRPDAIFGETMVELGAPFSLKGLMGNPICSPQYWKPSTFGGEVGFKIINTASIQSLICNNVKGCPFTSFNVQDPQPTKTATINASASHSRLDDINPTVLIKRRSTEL
Method: RAW264.7 murine macrophages were obtained from the Cell Bank of Shanghai Institute of Biochemistry and Cell Biology, Chinese Academy of Sciences (Shanghai, China) and cultured in Dulbecco's modified Eagle's medium containing 100 U/ml penicillin and 100 μg/ml streptomycin at 37° C. in 5% CO2.
RAW264.7 cells were plated at a density of 2.5×10^5/ml cells in a 96-well plate with 0.1 ml of culture medium per well and cultured overnight. The cells were pre-incubated for 30 min with various doses of compounds and stimulated for 7 h with 1 μg/ml LPS and 10 U/ml IFN-g. The cell culture supernatants were collected immediately following treatment and centrifuged at 1,000 rpm for 5 min to remove the particulate matter. PGE2 was determined using a Prostaglandin E2 assay kit (catalog no. 62P2APEB; Cisbio Co.,). 10 μL of cell supernatant was transferred to a 384-well low volume plate (e.g. Corning® 3544), 5 μL of PGE2-d2 was added, followed by 5 μL anti-PGE2 Cryptate as a negative control. Replace the standard by 10 μL of diluent and PGE2-d2 by 5 μL of reconstitution buffer, Cal0 (for positive control), replace the standard by 10 μL of diluent. Incubate at 4° C. overnight. After centrifuging at 1,000 rpm for 1 min, the dual fluorescence emissions of 615 and 665 nm with a 320 nm excitation were measured using an Envision plate reader (Perkin Elmer, Shelton, Conn.). The results are expressed as the ratio of 665 nm/615 nm emissions.
as §2

ovine COX-1 = target: T3, ovine COX-1 (Ovis aries, UniProt P05979); assay: biochemical
T3 sequence (P05979 25-600): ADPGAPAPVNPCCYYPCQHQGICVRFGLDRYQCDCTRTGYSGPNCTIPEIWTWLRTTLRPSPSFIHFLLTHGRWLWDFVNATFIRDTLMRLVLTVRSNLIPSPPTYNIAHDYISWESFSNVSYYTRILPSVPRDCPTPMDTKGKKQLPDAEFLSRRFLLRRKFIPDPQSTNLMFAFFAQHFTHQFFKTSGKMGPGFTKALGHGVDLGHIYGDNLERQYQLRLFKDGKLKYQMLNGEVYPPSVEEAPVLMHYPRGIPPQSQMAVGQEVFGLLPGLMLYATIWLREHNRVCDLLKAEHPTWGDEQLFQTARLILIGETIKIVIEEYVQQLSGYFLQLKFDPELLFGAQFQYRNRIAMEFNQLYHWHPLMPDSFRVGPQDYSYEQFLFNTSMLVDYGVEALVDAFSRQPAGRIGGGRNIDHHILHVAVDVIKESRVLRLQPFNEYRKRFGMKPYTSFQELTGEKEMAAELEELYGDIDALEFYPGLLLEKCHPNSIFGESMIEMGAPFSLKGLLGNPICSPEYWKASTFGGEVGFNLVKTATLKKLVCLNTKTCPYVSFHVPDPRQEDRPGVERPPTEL
Method: as §1, §2

[1] = human COX-2 enzyme, EIA, 15 min pre-incubation at 37° C., read-out: COX-2 IC50 (μM) enzyme
[2] = ovine COX-1 enzyme, EIA, read-out: COX-1 IC50 (μm) enzyme

## COc1ccc2c(c1)c(CC(=O)NCCCCCCNC(=O)[c-]1cccc1)c(C)n2C(=O)c1ccc(Cl)cc1.[C-]#[O+].[C-]#[O+].[C-]#[O+].[Re+] [Compound 242]
Human COX-2; [1]
  IC50: 0.3 µM
COX-2
  IC50: 0.4 µM
Ovine COX-1; [2]
  IC50: > 30 µM

## COc1ccc2c(c1)c(CC(=O)NCCCCCCCNC(=O)[c-]1cccc1)c(C)n2C(=O)c1ccc(Cl)cc1.[C-]#[O+].[C-]#[O+].[C-]#[O+].[Re+] [Compound 246]
Human COX-2; [1]
  IC50: 0.1 µM
COX-2
  IC50: 0.2 µM
Ovine COX-1; [2]
  IC50: > 30 µM

## COc1ccc2c(c1)c(CC(=O)NCCCCCC[N+]13CC[S][Re-]14(=[O])[S]CC[N]4C(=O)C3)c(C)n2C(=O)c1ccc(Cl)cc1 (centres unmarked) [Compound 260]
Human COX-2; [1]
  IC50: 0.3 µM
COX-2
  IC50: 0.2 µM
Ovine COX-1; [2]
  IC50: > 30 µM

## COc1ccc2c(c1)c(CC(=O)NCCCS(=O)(=O)CCC[N+]13CC[S][Re-]14(=[O])[S]CC[N]4C(=O)C3)c(C)n2C(=O)c1ccc(Cl)cc1 (centres unmarked) [Compound 268]
Human COX-2; [1]
  IC50: > 30 µM
COX-2
  IC50: > 10 µM

## COc1ccc2c(c1)c(CC(=O)NCCOCCOCC[N+]13CC[S][Re-]14(=[O])[S]CC[N]4C(=O)C3)c(C)n2C(=O)c1ccc(Cl)cc1 (centres unmarked) [Compound 269]
Human COX-2; [1]
  IC50: 0.5 µM
COX-2
  IC50: 0.9 µM

## COc1ccc2c(c1)c(CC(=O)NCCCCCC[N+]13CC[S][Re-]14(=[O])[S]CC[N]4CC3)c(C)n2C(=O)c1ccc(Cl)cc1 (centres unmarked) [Compound 275]
Human COX-2; [1]
  IC50: 0.7 µM
COX-2
  IC50: 0.2 µM
Ovine COX-1; [2]
  IC50: > 30 µM

## COc1ccc2c(c1)c(CC(=O)NCCCCCCC[N+]13CC[S][Re-]14(=[O])[S]CC[N]4CC3)c(C)n2C(=O)c1ccc(Cl)cc1 (centres unmarked) [Compound 305]
Human COX-2
  IC50: 0.3 µM
COX-2
  IC50: 0.1 µM
Ovine COX-1
  IC50: > 30 µM

## COc1ccc2c(c1)c(CC(=O)NCCC(C)(C)CC[N+]13CC[S][Re-]14(=[O])[S]CC[N]4CC3)c(C)n2C(=O)c1ccc(Cl)cc1 (centres unmarked) [Compound 307]
Human COX-2; [1]
  IC50: > 30 µM
COX-2
  IC50: 0.5 µM

## COc1ccc2c(c1)c(CC(=O)NCCCCCNC(=O)c1ccc[cH-]1)c(C)n2C(=O)c1ccc(Cl)cc1.[C-]#[O+].[C-]#[O+].[C-]#[O+].[Re+] [Compound 308]
Human COX-2; [1]
  IC50: 0.9 µM
COX-2
  IC50: 0.2 µM

## COc1ccc2c(c1)c(CC(=O)NCCC(C)(C)CCNC(=O)c1ccc[cH-]1)c(C)n2C(=O)c1ccc(Cl)cc1.[C-]#[O+].[C-]#[O+].[C-]#[O+].[Re+] [Compound 309]
Human COX-2; [1]
  IC50: 0.5 µM
COX-2
  IC50: 0.3 µM

## COc1ccc2c(c1)c(CC(=O)NCCCOCCCNC(=O)c1ccc[cH-]1)c(C)n2C(=O)c1ccc(Cl)cc1.[C-]#[O+].[C-]#[O+].[C-]#[O+].[Re+] [Compound 310]
Human COX-2; [1]
  IC50: > 30 µM
COX-2
  IC50: 0.2 µM

## COc1ccc2c(c1)c(CC(=O)NCCCCC(C)(C)NC(=O)c1ccc[cH-]1)c(C)n2C(=O)c1ccc(Cl)cc1.[C-]#[O+].[C-]#[O+].[C-]#[O+].[Re+] [Compound 312]
Human COX-2; [1]
  IC50: 0.1 µM
COX-2
  IC50: 0.4 µM

## COc1ccc2c(c1)c(CC(=O)N[C@H](C)CCCCC[N+]13CC[S][Re-]14(=[O])[S]CC[N]4C(=O)C3)c(C)n2C(=O)c1ccc(Cl)cc1 (some centres unmarked) [Compound 328]
Human COX-2; [1]
  IC50: 0.6 µM
COX-2
  IC50: 0.1 µM

## COc1ccc2c(c1)c(CC(=O)NCCC=CCC[N+]13CC[S][Re-]14(=[O])[S]CC[N]4C(=O)C3)c(C)n2C(=O)c1ccc(Cl)cc1 (centres unmarked) [Compound 341]
Human COX-2; [1]
  IC50: 0.8 µM
COX-2
  IC50: 0.3 µM

## [2H]C([2H])([2H])Oc1ccc2c(c1)c(CC(=O)NCCCCCC[N+]13CC[S][Re-]14(=[O])[S]CC[N]4C(=O)C3)c(C)n2C(=O)c1ccc(Cl)cc1 (centres unmarked) [Compound 346]
Human COX-2; [1]
  IC50: 0.3 µM
COX-2
  IC50: 0.2 µM

## COc1ccc2c(c1)c(CC(=O)NCCCCCC[N+]13CC[S][Re-]14(=[O])[S]CC[N]4C(=O)C3)c(C(F)(F)F)n2C(=O)c1ccc(Cl)cc1 (centres unmarked) [Compound 351]
Human COX-2; [1]
  IC50: > 30 µM
COX-2
  IC50: 0.4 µM

## COc1ccc2c(c1)c(CCNC(=O)CCCCC[N+]13CC[S][Re-]14(=[O])[S]CC[N]4C(=O)C3)c(C)n2C(=O)c1ccc(Cl)cc1 (centres unmarked) [Compound 359]
Human COX-2; [1]
  IC50: 0.6 µM
COX-2
  IC50: 0.2 µM

## NS(=O)(=O)c1ccc(-n2nc(CNC(=O)c3ccc[cH-]3)cc2-c2ccc(F)cc2)cc1.[C-]#[O+].[C-]#[O+].[C-]#[O+].[Re+] [Compound 365]
Human COX-2; [1]
  IC50: 7.9 µM
COX-2
  IC50: 1.1 µM

## NS(=O)(=O)c1ccc(-n2nc(CNC(=O)CCCCC[N+]34CC[S][Re-]35(=[O])[S]CC[N]5C(=O)C4)cc2-c2ccc(F)cc2)cc1 (centres unmarked) [Compound 367]
Human COX-2
  IC50: 4.5 µM
COX-2
  IC50: > 10 µM

## COc1ccc2c(c1)c(CCNCc1ccccn1)c(C)n2C(=O)c1ccc(Cl)cc1 [Compound 369]
Ovine COX-1; [2]
  IC50: > 30 µM
